# Measured values: paper PMC7433030 (Bioorganic & medicinal chemistry, 2020)
# Key:
# [1] = assay type: in vitro ADME; conditions: mouse liver microsomes, without NADPH (data not shown)
# G-CSF production = assay: In vivo G-CSF stimulation assay; parameters: species or system mouse; conditions: CD2F1 mice, 200 mg/Kg subcutaneously; for G-CSF production in mice after treatment: plasma G-CSF 8-48 h
# [2] = In vivo PK study, single subcutaneous dose in CD2F1 mice; conditions: male, CD2F1, mouse, sc, 200 mg/kg
smiles,measurement,setting,value
"[2H]C([2H])([2H])C(=CCC/C(C)=C/CC/C(C)=C/CC[C@]1(C)CCc2cc(O)cc(C)c2O1)C([2H])([2H])[2H] [d6-DT3, (R)-2-((3E,7E)-4,8-dimethyl-12-(methyl-d3)trideca-3,7,11-trien-1-yl-13,13,13-d3)-2,8-dimethylchroman-6-ol]",degradation in the absence of NADPH,[1],no degradation was observed
same,lag time before plasma G-CSF increase,G-CSF production,about 6 h
same,time of peak plasma G-CSF concentration,G-CSF production,24 h
same,G-CSF production in mice after treatment,G-CSF production,significant G-CSF production
"CC(C)=CCC/C(C)=C/CC/C(C)=C/CC[C@]1(C)CCc2cc(O)cc(C)c2O1 [DT3, δ-tocotrienol]",Tmax,[2],~1 h
same,Tmax at 24 h,[2],1 h
same,degradation in the absence of NADPH,[1],no degradation was observed
same,lag time before plasma G-CSF increase,G-CSF production,about 6 h
same,time of peak plasma G-CSF concentration,G-CSF production,24 h
same,G-CSF production in mice after treatment,G-CSF production,significant G-CSF production
